Structures are written as SMILES.

These results are taken from patent US8338426B2, “Piperazinyl derivatives useful as modulators of the neuropeptide Y2 receptor” (Janssen Pharmaceutica NV, priority 2007, dated 2012).

The target in experiment [1] is T1, human Y2 receptor (Homo sapiens, UniProt P49146).
T1 construct: KAN-Ts endogenously expressing Y2 receptors were used; endogenous in cells; host or cells: KAN-Ts cells
T1 sequence (P49146 1-381): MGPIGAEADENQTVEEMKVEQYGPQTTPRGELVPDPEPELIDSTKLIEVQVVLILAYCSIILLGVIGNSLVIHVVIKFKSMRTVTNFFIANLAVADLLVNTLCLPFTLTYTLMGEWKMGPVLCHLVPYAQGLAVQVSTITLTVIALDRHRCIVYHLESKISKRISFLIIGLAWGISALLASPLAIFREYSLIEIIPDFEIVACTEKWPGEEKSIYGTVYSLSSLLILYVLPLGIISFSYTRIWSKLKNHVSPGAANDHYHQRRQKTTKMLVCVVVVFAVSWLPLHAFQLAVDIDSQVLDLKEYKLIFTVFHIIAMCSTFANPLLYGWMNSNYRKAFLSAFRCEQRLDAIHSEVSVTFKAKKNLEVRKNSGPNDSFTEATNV
The experiment in a line: [35S]GTPγS binding assay in KAN-Ts cells. It counts as biochemical. How it is done:
[^35S] GTPγS binding assay in KAN-Ts cells was performed as described in Bonaventure, P., D. Nepomuceno, C. Mazur, B. Lord, D. A. Rudolph, J. A. Jablonowski, N. I. Carruthers and T. W. Lovenberg, J Pharmacol Exp Ther. 2004, 308, 1130.
Assay mixtures (150 were preincubated with compounds for 30 minutes at ambient temperature. Then, 50 μl of [^35S]GTPγS in assay buffer was added to a final concentration of 200 pM and the assay mixtures were incubated for 1 hour at ambient temperature. Reactions were terminated by rapid filtration thought GF/C filters. Filters were washed twice with ice cold 50 mM Tris-HCl, pH 7.4 containing 10 mM MgCl2. Basal [^35S]GTPγS was measured in the absence of compounds. In initial experiments, nonspecific binding was measured in the presence of 100 μM GTPgS. This nonspecific binding never exceeded 10% of basal binding and was thus not subtracted from experimental data. Stimulation of [^35S]GTPγS was determined as percentage over basal and was calculated as one hundred times the difference between stimulated and basal binding (in cpm). […] Data are expressed as mean±S.E.M.
The antagonistic properties of the compound of formula (A) were evaluated in a [^35S]GTPγS binding assay in KAN-Ts cells endogenously expressing human Y2 receptors. […]
In general terms: Binding of GTPγS marks nucleotide exchange on a G protein.

Experiment [2] addresses T1, human Y2 receptor. Nature of the experiment: Neuropeptide Y2 radioligand binding assay, [125I]PYY, KAN-Ts cells. Particulars: KANT-S cells, mean ± S.E.M., read-out: hY2 pKi (converted). As for the experimental part:
Radioligand binding assays for the human and rat/mouse Y2 receptor were performed as described in Bonaventure, P., D. Nepomuceno, C. Mazur, B. Lord, D. A. Rudolph, J. A. Jablonowski, N. I. Carruthers and T. W. Lovenberg, J Pharmacol Exp Ther. 2004, 308, 1130.
KAN-Ts endogenously expressing Y2 receptors were used, for the rat and mouse Y2 receptor, membranes from rat or mouse hippocampus were prepared. Membranes were incubated with [^125I]PYY (80 pM) in the presence or absence of test compound for 1 h at rt. The reaction was stopped by filtration through GF/C filter plates pre-soaked in 0.3% polyethylenimine and subsequently washed with Tris-HCl, 50 mM, 5 mM EDTA buffer. Plates were dried for 1 h in a 55° C. oven, scintillation fluid was added and the radioactivity was counted in a Packard TopCount. Specific binding to the NPY receptor subtypes was determined by radioactivity that was bound in the presence of 1 μM NPY.
Apparent Ki values were calculated as K=IC50/(1+C/KD), where C is concentration of the radioligand and pKi=−log Ki. Data presented below are expressed as mean±S.E.M.

The target in another experiment is T2, NPY Y1 receptor (Homo sapiens, UniProt P25929).
T2 construct: CEREP
T2 sequence (P25929 1-384): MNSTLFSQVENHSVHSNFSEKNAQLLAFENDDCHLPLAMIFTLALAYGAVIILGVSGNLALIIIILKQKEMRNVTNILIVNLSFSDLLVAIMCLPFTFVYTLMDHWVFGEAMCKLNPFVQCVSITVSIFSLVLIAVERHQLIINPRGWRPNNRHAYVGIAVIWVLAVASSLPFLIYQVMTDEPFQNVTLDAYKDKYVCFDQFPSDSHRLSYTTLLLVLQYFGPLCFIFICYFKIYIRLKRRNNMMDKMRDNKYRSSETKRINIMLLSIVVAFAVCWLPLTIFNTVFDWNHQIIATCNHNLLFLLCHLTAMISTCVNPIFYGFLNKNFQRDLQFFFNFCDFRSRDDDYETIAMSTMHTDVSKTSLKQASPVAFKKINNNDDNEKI
Nature of the experiment: CEREP binding panel, NPY Y1. As for the experimental part:
The selectivity of the compound of formula (A) was further evaluated in a large variety of ion-channels, transporters and receptor-binding assays including the Y1 receptor subtype. These assays were performed by CEREP (Celles L'Evescault, France; www.cere.com<http//www.cerea.com>). Selectivity vs the Y5 receptor subtype was evaluated as described in Bonaventure, P., D. Nepomuceno, C. Mazur, B. Lord, D. A. Rudolph, J. A. Jablonowski, N. I. Carruthers and T. W. Lovenberg, J Pharmacol Exp Ther. 2004, 308, 1130.
The compound of formula (A) was assayed by binding in a panel of 50 receptors, ion channels and transporters assays (CEREP) including adenosine (A1,A2A,A3), adrenergic (α1, α2, β1), angiotensin (AT1), dopamine (D1, D2), bradykinin (B2), cholecystokinin (CCKA), galanin (GAL2), melatonin ML1), muscarinic (M1, M2, M3), neurotensin (NTS), neurokinin (NK2, NK3), NPY (Y1, Y2) opiate (m, k, d), serotonin (5-HT1A, 5-HT1B, 5-HT2A, 5-HT3, 5-HT5A, 5-HT6, 5-HT7), somatostatin, vasopressin (V1a), norepinephrine transporter, dopamine transporter and ion channels (sodium, calcium, potassium and chloride).

On to `CCN(CC)C(=O)C(c1ccccc1)N1CCN(c2ccc(NC(=O)c3ccccc3-c3cccnc3)cc2F)CC1` (racemic) [Cmpd (A), N-{4-[4-(Diethylcarbamoyl-phenyl-methyl)-piperazin-1-yl]-3-fluoro-phenyl}-2-pyridin-3-yl-benzamide], for which the IC50 at human Y2 receptor [1] (read-out: hY2 pIC50corr (converted)) is 0.0501 nM. Besides, on human Y2 receptor [1] (up to 10 μM, no PYY), the “effect of compound by itself on [35S]GTPγS binding” value is on record as “did not affect”. The Ki at human Y2 receptor [2] is 5.5 nM. For the same compound, the inhibition at 1 µM at NPY Y1 receptor came out at 10%.

In general, inhibition refers to the change of the read-out against control, counted positive when it falls.
